From paper PMC4784480 (FEBS letters, 2010)

Molecular target: T1, Type II NADH dehydrogenase (Plasmodium falciparum, UniProt Q8I302)
T1 sequence (Q8I302 24-533): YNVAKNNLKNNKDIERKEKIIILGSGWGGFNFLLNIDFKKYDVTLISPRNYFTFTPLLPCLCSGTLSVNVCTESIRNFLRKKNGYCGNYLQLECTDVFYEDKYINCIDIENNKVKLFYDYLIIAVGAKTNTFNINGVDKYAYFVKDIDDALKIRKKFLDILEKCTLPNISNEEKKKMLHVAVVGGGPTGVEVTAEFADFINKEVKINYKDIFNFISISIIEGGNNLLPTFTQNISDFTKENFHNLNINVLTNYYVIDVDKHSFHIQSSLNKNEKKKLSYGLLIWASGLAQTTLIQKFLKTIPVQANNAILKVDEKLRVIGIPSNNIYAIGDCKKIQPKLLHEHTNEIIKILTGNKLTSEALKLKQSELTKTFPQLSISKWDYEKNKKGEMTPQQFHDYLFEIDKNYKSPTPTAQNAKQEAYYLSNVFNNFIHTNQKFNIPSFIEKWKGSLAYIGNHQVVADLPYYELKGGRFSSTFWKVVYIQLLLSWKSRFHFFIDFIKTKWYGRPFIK
Assay: NADH oxidation at […] nm, parasite cell-free extract
Type: biochemical
Conditions: concentration not given

| SMILES | NADH oxidation at 340 nm, parasite cell-free extract (inhibitor of MQ-4-dependent NADH oxidation) | NADH oxidation at 340 nm, parasite cell-free extract (electron acceptor with NADH) |
| --- | --- | --- |
| c1ccc2c(c1)[I+]c1ccccc1-2 [DPI, diphenylene iodonium chloride] | sensitive to diphenylene iodonium chloride (DPI), a classical Type II NADH:dehydrogenase inhibitor |  |
| CCCCCCCCCCC1=C(C)C(=O)C(OC)=C(OC)C1=O [decylubiquinone] |  | Without MQ-4 or decylubiquinone addition no NADH oxidation was observed |
